For 21 compounds, IC50 results are on record in patent US20060135773A1, “Trisubstituted nitrogen modulators of tyrosine phosphatases” (priority 2004, published 2006).

The target of this assay is T1, PTP-1B (Homo sapiens, UniProt P18031).
T1 construct: PTP-1B (purified, 1 mg/mL) as a 1:250 dilution
T1 sequence (P18031 1-321 limits assumed): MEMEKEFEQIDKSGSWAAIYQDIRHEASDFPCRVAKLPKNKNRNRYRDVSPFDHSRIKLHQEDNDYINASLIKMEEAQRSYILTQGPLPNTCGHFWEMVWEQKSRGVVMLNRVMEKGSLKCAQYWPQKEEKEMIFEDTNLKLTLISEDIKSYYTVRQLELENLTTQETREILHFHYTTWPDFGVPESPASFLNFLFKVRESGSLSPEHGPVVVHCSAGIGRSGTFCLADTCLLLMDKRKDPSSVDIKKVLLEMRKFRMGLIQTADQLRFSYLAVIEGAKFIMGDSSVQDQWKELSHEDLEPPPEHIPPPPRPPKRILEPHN
Briefly: pNPP tyrosine phosphatase inhibition assay, PTP-1B. In kind it is biochemical. As to conditions: pNPP assay, PTP-1B; read-out: Activity Class (IC50 ranges). The method, boiled down:
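Test compounds were screened at two final levels, 31.3 and 10 µM, against 4 µg/mL purified PTP-1B. The substrate was 10 mM p-nitrophenyl phosphate, with incubation for 10 min at 30°C before a K2CO3 quench. Activity was taken from A405.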
Regarding `COc1ccccc1S(=O)(=O)N(Cc1ccc(C(F)(F)P(=O)(O)O)c(Cl)c1)Cc1ccccc1N1CCCCC1` [Compound 208, [(2-Chloro-4-{[(2-methoxy-benzenesulfonyl)-(2-piperidin-1-yl-benzyl)-amino]-methyl}-phenyl)-difluoro-methyl]-phosphonic acid], the IC50 (in general, the concentration that inhibits the measured activity by half) fell in the range of 250 to 499 nM.

For the compound `O=P(O)(O)C(F)(F)c1ccc(CN(Cc2ccc(Cl)c(Cl)c2)S(=O)(=O)c2ccccc2OC(F)(F)F)cc1Br` [Compound 98, [(2-Bromo-4-{[(3,4-dichloro-benzyl)-(2-trifluoromethoxy-benzenesulfonyl)-amino]-methyl}-phenyl)-difluoro-methyl]-phosphonic acid], the IC50 was in the range of 250 to 499 nM.

Consider `COC(=O)c1ccc(CN(Cc2ccc(C(F)(F)P(=O)(O)O)c(Cl)c2)S(=O)(=O)c2ccccc2OC)cc1` [Compound 231, 4-{[[3-Chloro-4-(difluoro-phosphono-methyl)-benzyl]-(2-methoxy-benzenesulfonyl)-amino]-methyl}-benzoic acid methyl ester], for which the IC50 is 250 to 499 nM.

On to `NC(=O)c1cccc(S(=O)(=O)N(Cc2ccc(C(F)(F)P(=O)(O)O)c(Cl)c2)Cc2ccccc2-c2ccccc2)c1` [Compound 214, [(4-{[Biphenyl-2-ylmethyl-(3-carbamoyl-benzenesulfonyl)-amino]-methyl}-2-chloro-phenyl)-difluoro-methyl]-phosphonic acid], for which the IC50 was 250 to 499 nM. As for “3-{4-[({[4-(difluorophosphonomethyl)-3-chlorophenyl]methyl}[(2-methoxyphenyl)sulfonyl]amino)methyl]phenyl}-5-bromobenzoic acid [Compound 195]”, the figure is less than 99 nM; as for `COc1cccc(S(=O)(=O)N(Cc2ccc(C(F)(F)P(=O)(O)O)cc2)Cc2ccc(C(F)(F)P(=O)(O)O)cc2)c1` [Compound 86, [(4-{[[4-(Difluoro-phosphono-methyl)-benzyl]-(3-methoxy-benzenesulfonyl)-amino]-methyl}-phenyl)-difluoro-methyl]-phosphonic acid], 250 to 499 nM. Turning to `COc1ccccc1S(=O)(=O)N(Cc1ccc(-c2cccc(C#N)c2)cc1)Cc1ccc(C(F)(F)P(=O)(O)O)c(Cl)c1` [Compound 46, [(2-Chloro-4-{[(3′-cyano-biphenyl-4-ylmethyl)-(2-methoxy-benzenesulfonyl)-amino]-methyl}-phenyl)-difluoro-methyl]-phosphonic acid], the IC50 fell in the range of 100 to 249 nM. `COC(=O)c1ccc(CN(Cc2ccc(C(F)(F)P(=O)(O)O)c(Br)c2)S(=O)(=O)c2ccccc2)cc1` [Compound 30, 4-({Benzenesulfonyl-[3-bromo-4-(difluoro-phosphono-methyl)-benzyl]-amino}-methyl)-benzoic acid methyl ester]: the IC50 is 250 to 499 nM. For `O=C(O)c1ccc(CN(Cc2ccc(C(F)(F)P(=O)(O)O)c(Br)c2)S(=O)(=O)c2ccccc2Cl)cc1` [Compound 107, 4-{[[3-Bromo-4-(difluoro-phosphono-methyl)-benzyl]-(2-chloro-benzenesulfonyl)-amino]-methyl}-benzoic acid], the IC50 is less than 99 nM. The same measure for `COc1ccccc1S(=O)(=O)N(Cc1ccc(-c2nn[nH]n2)cc1)Cc1ccc(-c2nn[nH]n2)cc1` [Compound 110, 2-Methoxy-N,N-bis-[4-(2H-tetrazol-5-yl)-benzyl]-benzenesulfonamide]: greater than 25000 nM. Turning to `COc1ccccc1S(=O)(=O)N(Cc1ccc(C#N)cc1)Cc1ccc(C(F)(F)P(=O)(O)O)c(Br)c1` [Compound 105, [(2-Bromo-4-{[(4-cyano-benzyl)-(2-methoxybenzenesulfonyl)-amino]-methyl}-phenyl)-difluoro-methyl]-phosphonic acid], the IC50 was in the range of 100 to 249 nM. Take `CS(=O)(=O)c1cccc(-c2ccc(S(=O)(=O)N(Cc3ccc(C#N)cc3)Cc3ccc(C(F)(F)P(=O)(O)O)c(Cl)c3)cc2)c1` [Compound 144, [(2-Chloro-4-{[(4-cyano-benzyl)-(3′-methanesulfonyl-biphenyl-4-sulfonyl)-amino]-methyl}-phenyl)-difluoro-methyl]-phosphonic acid]: the IC50 was in the range of 250 to 499 nM. As for `COc1ccccc1S(=O)(=O)N(Cc1cccc(-c2cccc(S(C)(=O)=O)c2)c1)Cc1ccc(C(F)(F)P(=O)(O)O)c(Cl)c1` [Compound 142, [(2-Chloro-4-{[(3′-methanesulfonyl-biphenyl-3-ylmethyl)-(2-methoxy-benzenesulfonyl)-amino]-methyl}-phenyl)-difluoro-methyl]-phosphonic acid], the figure is 250 to 499 nM; as for `COc1ccccc1S(=O)(=O)N(Cc1ccc(C(F)(F)P(=O)(O)O)c(Cl)c1)C(C)c1ccccc1` (stereo not drawn) [Compound 166, [(2-Chloro-4-{[(2-methoxy-benzenesulfonyl)-(1-phenyl-ethyl)-amino]-methyl}-phenyl)-difluoro-methyl]-phosphonic acid], 2500 to 25000 nM; as for `COc1ccccc1S(=O)(=O)N(Cc1ccc(C(F)(F)P(=O)(O)O)c(Cl)c1)Cc1ccccc1-c1cccc(C(N)=O)c1` [Compound 186, [(4-{[(3′-Carbamoyl-biphenyl-2-ylmethyl)-(2-methoxy-benzenesulfonyl)-amino]-methyl}-2-chloro-phenyl)-difluoro-methyl]-phosphonic acid], 100 to 249 nM. Turning to `COc1ccccc1S(=O)(=O)N(Cc1ccc(-c2ccc(Cl)c(C(=O)O)c2)cc1)Cc1ccc(C(F)(F)P(=O)(O)O)c(Cl)c1` [Compound 176, 4-Chloro-4′-{[[3-chloro-4-(difluoro-phosphono-methyl)-benzyl]-(2-methoxy-benzenesulfonyl)-amino]-methyl}-biphenyl-3-carboxylic acid], the IC50 was less than 99 nM. As for `O=P(O)(O)C(F)(F)c1ccc(CN(Cc2ccc(C(F)(F)P(=O)(O)O)c(Cl)c2)C2CCc3ccccc32)cc1Cl` (stereo not drawn) [Compound 232, {[2-Chloro-4-({[3-chloro-4-(difluoro-phosphono-methyl)-benzyl]-indan-1-yl-amino}-methyl)-phenyl]-difluoro-methyl}-phosphonic acid], the figure is 250 to 499 nM.

Regarding “(4-{[(4-Cyano-benzyl)-(2-methoxy-benzenesulfonyl)-amino]-methyl}-phenyl)-difluoro-acetic acid [Compound 130]”, the half-maximal inhibitory concentration (IC50) is greater than 25000 nM.

For `COc1ccccc1S(=O)(=O)N(Cc1ccc(C(F)(F)P(=O)(O)O)c(Cl)c1)C(Cc1ccccc1)c1ccccc1` (stereo not drawn) [Compound 171, [(2-Chloro-4-{[(1,2-diphenyl-ethyl)-(2-methoxy-benzenesulfonyl)-amino]-methyl}-phenyl)-difluoro-methyl]-phosphonic acid], the IC50 was in the range of 2500 to 25000 nM. As for `COC(=O)c1ccc(CN(Cc2ccc(C(F)(F)P(=O)(O)O)c(Br)c2)S(=O)(=O)c2ccccc2Cl)cc1` [Compound 104, 4-{[[3-Bromo-4-(difluoro-phosphono-methyl)-benzyl]-(2-chloro-benzenesulfonyl)-amino]-methyl}-benzoic acid methyl ester], the IC50 was 100 to 249 nM. As for `COc1ccccc1S(=O)(=O)N(Cc1ccc(-c2cccc(C(N)=O)c2)cc1)Cc1ccc(C(F)(F)P(=O)(O)O)c(Cl)c1` [Compound 161, [(4-{[(3′-Carbamoyl-biphenyl-4-ylmethyl)-(2-methoxy-benzenesulfonyl)-amino]-methyl}-2-chloro-phenyl)-difluoro-methyl]-phosphonic acid], the figure is 100 to 249 nM.
